In experiment [1] the test system is CEM-SS. Briefly: Antiviral activity against HIV-1ADA in […]; I = No antiviral activity. It counts as functional, cell-based, Homo sapiens.
The test system of experiment [2] is CEM-SS. Briefly: Antiviral activity against HIV-1 in CEM-SS cells using […] assay. The experiment is classed as functional, cell-based. The conditions noted are these: Homo sapiens.
Experiment [3] deals with CEM-SS. Briefly: Antiviral activity against HIV-1 in CEM-SS cells using […] assay; I = No antiviral activity. The experiment is classed as functional, cell-based, Homo sapiens.
Experiment [4] relates to Human immunodeficiency virus 1. Description: Compound was tested for binding of HIV-1 to CEM-ss cells; NI = No inhibition. It counts as functional, organism-based.
For experiment [5], the target named is Human immunodeficiency virus type 1 protease (Human immunodeficiency virus 1, UniProt Q72874). Briefly: Compound was tested for effects on HIV-1 protease; NI = No inhibition.
In experiment [6] the target is Human immunodeficiency virus type 1 reverse transcriptase (Human immunodeficiency virus 1, UniProt Q72547). Description: Compound was tested for the effect on HIV-1 Reverse Transcriptase; NI = No inhibition.
Experiment [7] deals with CEM-SS. Description: Antiviral activity against HIV-1ADA in […]. It counts as functional, cell-based. The conditions noted are these: Homo sapiens.

In ChEMBL document CHEMBL1130070, “Zinc ejection as a new rationale for the use of cystamine and related disulfide-containing antiviral agents in the treatment of AIDS” (J Med Chem, 1997) one finds EC50, IC50 and I50 data, which are given here for 5 molecules.

Each structure is given as a SMILES string. Where only a bound is given, the exact number is not on record here.

`C/C(=C(\CCO)SS/C(CCO)=C(/C)N(C=O)Cc1cnc(C)nc1N)N(C=O)Cc1cnc(C)nc1N`: the EC50 result in the experiment on CEM-SS [1] and in the experiment with CEM-SS [3] was “Not Active” in each case. The IC50 – broadly, the concentration at which inhibition is half-maximal – in the experiment on CEM-SS [2] is 535 µM; with CEM-SS [7] it was greater than 100 µM. The I50 result in experiment [4], in experiment [5] and in experiment [6] was “Not Active” in each case.

Turning to `NCCSSCCN` [CYSTAMINE], the EC50 (commonly the midpoint of the concentration-response curve) worked out at 56.2 µM with CEM-SS [2] and 4.3 µM with CEM-SS [7]. Besides, the values for the IC50 with CEM-SS [2] and in the experiment on CEM-SS [7] were 172 µM and greater than 100 µM, respectively. The I50 entry in experiment [4], in experiment [5] and in experiment [6] was “Not Active” in each case.

Regarding `NCCS` [CYSTEAMINE], the concentration giving a half-maximal response (EC50) with CEM-SS [2] stood at 41.6 µM; in the experiment on CEM-SS [7], 53.7 µM. Moreover, the IC50 in the experiment with CEM-SS [2] was 71 µM; in the experiment with CEM-SS [7], greater than 100 µM. For the same molecule, the I50 entry in experiment [4], in experiment [5] and in experiment [6] was “Not Active” throughout.

For the molecule `CCN(CC)C(=S)SSC(=S)N(CC)CC` [DISULFIRAM], the EC50 entry in the experiment with CEM-SS [1] and in the experiment on CEM-SS [3] was “Not Active” throughout. The IC50 in the experiment on CEM-SS [2] is 3.9 µM; in the experiment on CEM-SS [7], greater than 100 µM. Besides, the I50 entry in experiment [4], in experiment [5] and in experiment [6] was “Not Active” each time.

As to `CCN(CC)C(=S)S` [DITIOCARB], the EC50 entry in the experiment with CEM-SS [1] and with CEM-SS [3] was “Not Active” each time. Moreover, the IC50 with CEM-SS [2] and in the experiment on CEM-SS [7] was greater than 100 µM each time. Moreover, the I50 entry in experiment [4], in experiment [5] and in experiment [6] was “Not Active” throughout.
